This is an account of results in patent publication US20040120938A1, “Ingestible compositions comprising antibacterial agents” (The University of Bath, priority 1998, published 2004).

Data set [1] relates to E. coli. The experiment in a line: Peroxynitrite scavenger and XO systems on bacterial growth curves in nutrient broth (Test 8(d)). The data set is classed as cell-based. The note with it: 100 μM with peroxynitrite 100 μM. Here is the method:
E. coli were seeded into nutrient broth at 2.10^7 cell ml^−1 and incubated at 37° C. under atmospheric air conditions (that is, 21% oxygen saturation). Four separate test samples of volume 1 ml were prepared by addition at 1 hour of incubation as follows:
1 Peroxynitrite at concentration 100 μM.
2 Peroxynitrite at 100 μM and quercetin (peroxynitrite scavenger) at 100 μM.
3 Xanthine oxidase (53.2 μg) and xanthine at 100 μM.
4 Xanthine oxidase (53.2 μg) and NADH at 100 μM.
Corresponding controls were also prepared, and the growth curves generated over time determined by monitoring absorbance.

The test system of data set [2] is E. coli. The data set can be described thus: Xanthine oxidase derived species on cell viability at a range of oxygen concentrations (Test 8(c)). Type of data set: cell-based. Here is the method:
E. coli were cultured as described above. Aliquots were taken and incubated with a reaction system consisting of bovine Xanthine oxidase (XO) (53.2 μgml^−1), nicotinamide adenine dinucleotide in reduced form (NADH) (300 μM), sodium nitrite, (NaNO2) 1 mM and oxygen at a range of concentrations. Desired oxygen concentrations were generated by delivery into the system of a mixture of oxygen and nitrogen in appropriate proportions and determined using a Clark-type O2 electrode. This reaction was followed at 37° C. for 30 min with mixing before an aliquot was taken and plated onto agar and incubated in a warm room at 37° C. Viable cells formed colonies on the agar and were counted. Viable cell counts were performed in triplicate and the results expressed as a percentage viable count in each case related to a non enzyme control of the same oxygen concentration. […] The range of oxygen tensions used covers those in which XO has previously been considered to be active, namely superoxide generation (21% O2 saturation) and nitric oxide production (0% O2 saturation). A certain amount of killing is seen at both of these extremes as compared with control samples. However, it is only at an intermediate oxygen concentration that the greatest amount of killing is observed. […] Corresponding data obtained in respect of S. enteritidis indicated a peak killing oxygen concentration of 0% for that cell type.
Replacement of NADH in the above method by 100 μM hypoxanthine, with a sodium nitrite concentration of 2.5 μM led to slightly higher peak killing oxygen concentrations (6.4% for E. coli and 1.5% for S. enteritidis).

In data set [3] the test system is Staphylococcus aureus 6751. The experiment in a line: Bacterial growth rate by optical density, 96 well plate (Tests 8(f), 8(g)). The data set is classed as cell-based. The note with it: Staphylococcus; hypoxanthine 100 μM, range of XO concentrations. As to the method:
Bacteria were seeded into nutrient broth (NB) and grown over night at 37° C. The culture was then counted and normalised to give a final cell concentration of 1.8×10^7 cells well^−1 into the wells of a 96 well plate in fresh nutrient broth. The optical density of each well was monitored every 15 minutes as a measure of the growth rate of each bacterial species. Growth curves were generated for each species and the maximal rate of growth (logarithmic phase) was measured. Cells were treated to a range of experimental conditions in which the growth rate of cells was related to a control of untreated cells. The results were expressed as a percentage of the growth rate of the control cells.
(i) At a fixed concentration of hypoxanthine (100 μM) a range of purified XO protein concentrations were added at time 0 minutes. The optical density was followed and the growth rate calculated.
(ii) The growth rate was also measured in relation to the concentration of hypoxanthine, using 30 μg of XO with cells seeded as described above.
(iv) The effect of XO hypoxanthine addition was measured on the growth rate of a range of bacterial species with 30 […] XO at varying hypoxanthine concentrations using cells seeded as described above.

The test system of data set [4] is nitric oxide (NO) release. The experiment in a line: NO release from pure bovine xanthine oxidase with nitrite and NADH under hypoxia (Tests 1-3). The data set is classed as biochemical. Here is the method: The production of nitric oxide in the following tests and examples was analysed using an ozone chemiluminescence assay in a continuous flow apparatus (Sievers NOA 280) that allows the real time analysis of NO production. The apparatus was modified to allow a constant stream of nitrogen to flow into the reaction chamber. Chemiluminescence data were collected by a data acquisition system; the mean NO produced in parts per billion (ppb) was calculated from readings taken every second and shown as ppb or mV.
Progress curves, of molar production of NO against time, were calculated by taking into account the gas flow and the mean level of NO. Molar production of NO was expressed as ppb/sec or mV/sec. Reactions were carried out in a final volume of 1 ml at 37° C. in an atmosphere of <1% oxygen (Stathkelvin combination needle oxygen electrode, Diamond General Corp.).
The release of nitric oxide (NO) from a composition including pure bovine xanthine oxidase under hypoxia conditions was studied. The samples studied comprised reduced β-Nicotinamide adenine dinucleotide (NADH) and nitrite (NO2^−) and pure bovine xanthine oxidase.
Bovine xanthine oxidase was diluted with PBS as indicated in Table 1 below to give 300 μl of enzyme mixture. The enzyme mixture (300 μl) was mixed with 700 μl of a substrate mixture to give an assay volume of 1 ml. The substrate mixture comprised nitrite which was added to the assay to give a concentration of 1 mM and NADH which was added to give a concentration of 0.3 mM. Where, for example in Tests 2 to 4 below, additional components are added to the sample, the amount of PBS is adjusted accordingly to give an assay volume of 1 ml. The sample was placed in the reaction vessel of the NO determination apparatus under a nitrogen atmosphere and the generation of NO was measured and the results calculated as a steady state rate in mV/s.
Using the method described above in respect of Test 1, the effect of the variation in the concentration of NADH on the production of NO was investigated. 4 mM NADH was diluted with PBS to give the relevant concentration.
Using the method described above in respect of Test 1, the effect of the variation in the concentration of nitrite on the production of NO was investigated. As for Test 1, the concentration of NADH was 0.3 mM. 1M nitrite (or 100 mM nitrite, where appropriate for low concentrations) was diluted with PBS to give the relevant concentration.

Data set [5] concerns S. enteritidis. The experiment in a line: Xanthine oxidase derived species on cell viability at a range of oxygen concentrations (Test 8(c)). Type of data set: cell-based.

On to `O=c1c(O)c(-c2ccc(O)c(O)c2)oc2cc(O)cc(O)c12` [quercetin], for which, in data set [1], the “effect on peroxynitrite killing” value was “clear effect in reducing killing”.
Turning to `O=c1[nH]c(=O)c2[nH]cnc2[nH]1` [xanthine], the “killing using xanthine instead of hypoxanthine” value in data set [2] (XO system, cell type not specified) was “More limited killing”.
For the compound xanthine oxidoreductase [XOR], the growth inhibition result in data set [3] is on record as “less marked growth inhibition”. The “killing above about 8% oxygen” value in data set [2] (E. coli) and in data set [5] was “little or no killing” throughout. Moreover, the “oxygen concentration of most effective killing” value in data set [2] (E. coli, XO 53.2 μg/ml, NADH 300 μM, NaNO2 1 mM, 37° C., 30 min) is given as “approximately 3 % of saturation”. For the same compound, the killing result in data set [2] (E. coli, oxygen concentration about 21%) is listed as “about 5%”; in data set [5] (oxygen concentration about 21%), “about 10%”. The NO release is 0.00 mV/s in data set [4] (XOR 21.4 μg, nitrite 0 mM, NADH 0.3 mM); 53.75 mV/s in data set [4] (XOR 21.4 μg, nitrite 1 mM, NADH 0.3 mM); 184.8 mV/s in data set [4] (XOR 21.4 μg, nitrite 5 mM, NADH 0.3 mM); 378.10 mV/s in data set [4] (XOR 21.4 μg, nitrite 10 mM, NADH 0.3 mM); 407.55 mV/s in data set [4] (XOR 21.4 μg, nitrite 25 mM, NADH 0.3 mM); 474.05 mV/s in data set [4] (XOR 21.4 μg, nitrite 50 mM, NADH 0.3 mM). The NO release in data set [4] (XOR 53.5 μg, NADH 0.00 mM) turned out to be 0.00 mV/s; in data set [4] (XOR 53.5 μg, NADH 0.10 mM), 30.45 mV/s; in data set [4] (XOR 53.5 μg, NADH 0.25 mM), 66.80 mV/s; in data set [4] (XOR 53.5 μg, NADH 0.50 mM), 92.55 mV/s; in data set [4] (XOR 53.5 μg, NADH 1.00 mM), 103.35 mV/s; in data set [4] (XOR 53.5 μg, NADH 2.00 mM), 109.20 mV/s. The NO release in data set [4] (XOR 107.0 μg, NADH 0.00 mM) turned out to be 0.00 mV/s; in data set [4] (XOR 107.0 μg, NADH 0.10 mM), 74.45 mV/s; in data set [4] (XOR 107.0 μg, NADH 0.25 mM) it was 142.70 mV/s; in data set [4] (XOR 107.0 μg, NADH 0.50 mM) it was 192.65 mV/s; in data set [4] (XOR 107.0 μg, NADH 1.00 mM), 230.05 mV/s; in data set [4] (XOR 107.0 μg, NADH 2.00 mM) it was 264.65 mV/s. Moreover, the NO release in data set [4] (XOR protein in assay 21.4 μg, 1 mM nitrite, 0.3 mM NADH) was 50.05 mV/s; in data set [4] (XOR protein in assay 53.5 μg, 1 mM nitrite, 0.3 mM NADH), 76.35 mV/s; in data set [4] (XOR protein in assay 107.0 μg, 1 mM nitrite, 0.3 mM NADH), 128.55 mV/s; in data set [4] (XOR protein in assay 160.5 μg, 1 mM nitrite, 0.3 mM NADH) it was 187.20 mV/s; in data set [4] (XOR protein in assay 214.0 μg, 1 mM nitrite, 0.3 mM NADH), 225.75 mV/s. Also, in data set [4] (hypoxic conditions), the “optimum pH for the production of NO under the hypoxic conditions” value was around 5.5. Further, the “peak killing oxygen concentration” value in data set [5] (XO, NADH, NaNO2) amounted to 0%.
